The values that follow are results of earlier work, collected in publication PMC11322901 (Chemical Science, 2024).

Data set [1] has as its target CaM(Ca2+) (Mus musculus, UniProt P0DP26).
Data set [2] has as its target GST. To be noted: read-out: Ki of monovalent EA inhibitor.

Regarding mastoparan, the “Affinity for CaM(Ca2+)” value in data set [1] is reported as “low nanomolar”.

Broadly, the Ki is the dissociation constant of the complex between target and ligand, obtained from inhibition or displacement. As to `C=C(CC)C(=O)c1ccc(OCC(=O)O)c(Cl)c1Cl` [EA], the Ki in data set [2] is 1000 to 5000 nM.
